The values that follow come from patent US8389679B2, “Targeted antimicrobial moieties” (priority 2009, dated 2013).

“Also recorded” adds a separate entry of the source. Where a SMILES comes first, the peptide text is derived from it. Where no end group is shown, it is not given here.

The subject of the first assay is S. mutans.
Test: not given
Conditions: not given
As for FHFHLHFGGGGFIKHFIHRF-NH2 [135(G4)2_1], the “S. mutans (MIC)” value came to 16 µg/mL.

`CC[C@H](C)[C@H](NC(=O)[C@H](Cc1ccccc1)NC(=O)CCCCCCCNC(=O)[C@H](Cc1ccccc1)NC(=O)[C@H](Cc1c[nH]cn1)NC(=O)[C@H](CC(C)C)NC(=O)[C@H](Cc1c[nH]cn1)NC(=O)[C@H](Cc1ccccc1)NC(=O)[C@H](Cc1c[nH]cn1)NC(=O)[C@@H](N)Cc1ccccc1)C(=O)N[C@@H](CCCCN)C(=O)N[C@@H](Cc1c[nH]cn1)C(=O)N[C@@H](Cc1ccccc1)C(=O)N[C@H](C(=O)N[C@@H](Cc1c[nH]cn1)C(=O)N[C@@H](CCCNC(=N)N)C(=O)N[C@@H](Cc1ccccc1)C(N)=O)[C@@H](C)CC` [135(LC)2_1, FHFHLHF-[NH(CH2)7CO]-FIKHFIHRF] (HELM PEPTIDE1{F.H.F.H.L.H.F.[O=C(CCCCCCCN[*:1])[*:2]].F.I.K.H.F.I.H.R.F.[am]}$$$$V2.0; N-terminus assumed): the “S. mutans (MIC)” value turned out to be 64 µg/mL. On to FHFHLHFGGGGGGFIKHFIHRF-NH2 [135(G6)2_1], for which the “S. mutans (MIC)” value came out at 32 µg/mL.

The assay is the same for the next values; noted with them: FIG. 17 and Table 16.
In the case of “FHFHLHF (not fully specified (C-terminus)) [PL-135]”, the “activity against S. mutans relative to progeny STAMPs” value is listed as 2 to 4 fold.

The assay is the same for the next values; noted with them: Library 2 STAMPs; all S. mutans isolates tested, minimum of three independent trials.
In the case of FHFHLHFGSGSGFIKHFIHRF-NH2 [135(L12)2_1], the “S. mutans (MIC)” value amounted to 32 µg/mL.

With “FHFHLHFSGSFIKHFIHRF-NH2 [135(L11)2_1, FHFHLHFSGSFIKHFIHRF]”, the “S. mutans (MIC)” value was found to be 32 µg/mL.

A further assay concerns target microorganisms. Kind of assay: Screen of synthesized peptides for binding to target microorganisms (targeting peptides, Tables 2 and 3). The conditions noted are these: microorganism(s) the targeting peptide was identified as binding to (Table 3). The method, then:
Once noted, these peptides were batch synthesized on a multiplex peptide synthesizer, yielding 5-10 mg of each peptide that could readily be screened for biological activity (e.g., binding activity and/or antimicrobial activity.
Other suitable targeting peptides include the peptides that have been identified as binding to particular target organisms as shown in Table 3 and/or Table 4.
Take “1T-50 (HSDEPIPNILFKSDSVH; synthetic novel tartgeting peptide IT-50)”: the “Target(s)” value is reported as “P. aeruginosa”. On to “1T-84 (FRKKRYGLSILLWLNAFTNLVNSIHAFYMTLF; synthetic novel tartgeting peptide IT-84)”, for which the “Target(s)” value is “S. pneumoniae”. As to “1T-93 (AMRSVNQA; synthetic novel tartgeting peptide IT-93)”, the “Target(s)” value is recorded as “S. epidermidis, S. gordonii,; also recorded: S. mitis, S. mutans,; also recorded: S. oralis, S. sanguinis”. For “1T-81 (AIATGLDIVDGKFDGYLWA; synthetic novel tartgeting peptide IT-81)”, the “Target(s)” value was “S. pneumoniae”. As for “1T-157 (RRFRKTTENREKSKNKKAVLGLSTTSTASY; synthetic novel tartgeting peptide IT-157)”, the “Target(s)” value is reported as “A. naeslundii, F. nucleatum,; also recorded: P. gingivalis,; also recorded: T. denticolaS. gordonii,; also recorded: S. mitis, S. mutans, S. oralis,; also recorded: S. salivarious, S. sanguinis”.

For “1T-21 (YVEEAVRAALKKEARISTEDTPVNLPSFDC; synthetic novel tartgeting peptide IT-21)”, the “Target(s)” value is “S. mutans; also recorded: P. aeruginosa”. Take “1T-37 (YIVGALVILAVAGLIYSMLRKA; synthetic novel tartgeting peptide IT-37)”: the “Target(s)” value was “S. mutans; also recorded: S. aereus; also recorded: S. epidermidis; also recorded: C. jeikeium; also recorded: C. xerosis; also recorded: C. striatum; also recorded: P. aeruginosa”. On the same count and under the same terms, the value for “1T-3 (VLGIAGGLDAYGELVGGN; synthetic novel tartgeting peptide IT-3)” was “S. mutans; also recorded: S. gordonii”.

As for “1T-133 (YFIKDDNEALSKDWEVIGNDLKGTIDKYGKEFKVR; synthetic novel tartgeting peptide IT-133)”, the “Target(s)” value is recorded as “A. naeslundii, P. gingivalis; also recorded: S. epidermidis,; also recorded: S. gordonii, S. mitis, S. mutans,; also recorded: S. oralis, S. salivarious,; also recorded: S. sanguinis”.

On to “1T-5 (LGPIAGAAIGWDLGAISGAGLGWANFCQ; synthetic novel tartgeting peptide IT-5)”, for which the “Target(s)” value is listed as “S. mutans; also recorded: S. sanguinis”.

For “1T-35 (EICLTLVFPIRGSYSEAAKFPVPIHIVEDGTVELPK; synthetic novel tartgeting peptide IT-35)”, the “Target(s)” value was “P. aeruginosa”. For “1T-168 (ELHRIMSTEKIGAVTKMNFDTAPIMSILPIDIYPKEVGIGS; synthetic novel tartgeting peptide IT-168)”, the “Target(s)” value is “A. naeslundii, F. nucleatum,; also recorded: P. gingivalis; also recorded: S. epidermidis,; also recorded: S. gordonii, S. mitis, S. mutans,; also recorded: S. oralis, S. salivarious,; also recorded: S. sanguinis”. Consider “1T-43 (DRCLSVLSWSPPKVSPLI; synthetic novel tartgeting peptide IT-43)”, for which the “Target(s)” value is on record as “C. jeikium; also recorded: P. aeruginosa”. “1T-92 (GQDEGQRRAGVGEGQGVDG; synthetic novel tartgeting peptide IT-92)”: the “Target(s)” value is recorded as “S. mitis, S. mutans”. As for “1T-115 (LLIERFSNHH; synthetic novel tartgeting peptide IT-115)”, the “Target(s)” value is “A. naeslundii, F. nucleatum,; also recorded: P. gingivalis; also recorded: S. epidermidis,; also recorded: S. gordonii, S. mitis, S. mutans,; also recorded: S. oralis, S. salivarious,; also recorded: S. sanguinis”.

Consider “1T-120 (DVRDRVDLAGADLCAAHATR; synthetic novel tartgeting peptide IT-120)”, for which the “Target(s)” value is on record as “A. naeslundii, F. nucleatum,; also recorded: P. gingivalis; also recorded: S. epidermidis,; also recorded: S. gordonii, S. mitis, S. mutans,; also recorded: S. oralis, S. salivarious,; also recorded: S. sanguinis”. Turning to “1T-44 (DPALADFAAGMRAQVRT; synthetic novel tartgeting peptide IT-44)”, the “Target(s)” value is recorded as “S. mutans; also recorded: S. aureus; also recorded: S. epidermidis; also recorded: C. jeikeium; also recorded: C. striatum; also recorded: P. aeruginosa”. In the case of “1T-105 (GEGLPPPVLHLPPPRMSGR; synthetic novel tartgeting peptide IT-105)”, the “Target(s)” value is recorded as “S. epidermidis, S. gordonii,; also recorded: S. mitis, S. mutans,; also recorded: S. oralis”. With “1T-65 (HARAAVGVAELPRGAAVEVELIAAVRP; synthetic novel tartgeting peptide IT-65)”, the “Target(s)” value is listed as “S. mutans; also recorded: S. aureus; also recorded: S. epidermidis; also recorded: C. jeikeium; also recorded: C. xerosis; also recorded: C. striatum; also recorded: P. aeruginosa”. The same measure, in the same setting: the value for “1T-82 (FGVGVGIALFMAGYAIGKDLRKKFGKSC; synthetic novel tartgeting peptide IT-82)” was “S. pneumoniae”. For the compound “1T-77 (EMRISRIILDFLFLRKK; synthetic novel tartgeting peptide IT-77)”, the “Target(s)” value was “S. pneumoniae”. Turning to “1T-139 (AVAGAAVGALLGNDARSTAVGAAIGGALGAGAGELTKNK; synthetic novel tartgeting peptide IT-139)”, the “Target(s)” value is recorded as “A. naeslundiiS. gordonii,; also recorded: S. mitis, S. mutans, S. oralis”. On the same count and under the same terms, the value for “1T-161 (NKVLQVEVMWDGSVVGRPAGVISIKSSKKG; synthetic novel tartgeting peptide IT-161)” was “A. naeslundii, F. nucleatum,; also recorded: P. gingivalis; also recorded: S. epidermidis,; also recorded: S. gordonii, S. mitis, S. mutans,; also recorded: S. oralis, S. salivarious,; also recorded: S. sanguinis”. The same measure, in the same setting: the result for “1T-86 (HRKNPVLGVGRRHRAHNVA; synthetic novel tartgeting peptide IT-86)” reads “S. mitis, S. oralis, S. salivarious”; that for “1T-155 (LKLAFGVYPFQAMSQSDTAVSERNVLWR; synthetic novel tartgeting peptide IT-155)”, “A. naeslundii, F. nucleatum,; also recorded: P. gingivalis; also recorded: S. epidermidis,; also recorded: S. gordonii, S. mitis, S. mutans,; also recorded: S. oralis, S. salivarious,; also recorded: S. sanguinis”.
